Results: patent US11504368B2, “2,6-diamino-3,4-dihydropyrimidin-4-one derivatives and use thereof in therapy” (THOMAS HELLEDAYS STIFTELSE FÖR MEDICINSK FORSKNING, priority 2018, dated 2022)

Key:
[1] = test system: colorectal cancer patient-derived xenograft; conditions: colorectal cancer patient-derived xenograft mouse models; Ju et al. (2019); cited from earlier work
MTHFD2 [2] = biological target: T1, MTHFD2 (Homo sapiens (Human), UniProt P13995); conditions: Fu et al. Nat. Commun. (2017); cited from earlier work
HL-60 cells = test: Cancer cell viability assay (HL-60, resazurin); type: cell-based; conditions: Homo sapiens, 96 h, mean of at least 3 independent measurements, read-out: HL60 cell proliferation inhibition EC50
Experimental: HL-60 cells (human promyelocytic leukemia cells) were seeded in a 384-well plate at a density of 2,000 cells per well in 50 μL induction medium and treated with vehicle (DMSO) or an 11-point concentration range with 3-fold dilution in concentration of compound. Each assay point was run in duplicate. Wells without cells but with DMSO were used as negative controls. The cells were left to proliferate over a period of 96 h, in an incubator at 37° C. and 5% CO2, followed by an addition of 10 μL […] resazurin sodium salt (199303, Sigma-Aldrich) dissolved in DPBS (14190, Gibco). After 4 h of incubation at 37° C. and 5% CO2, the fluorescent signal was measured using an excitation wavelength of 544 nm and an emission wavelength of 595 nm in a Hidex Sense plate reader. Cell plates were incubated in boxes with damp paper tissues to avoid evaporation. All additions, except compound and DMSO, were done using the Multidrop Combi (Thermo Fisher Scientific). DMSO and compounds were pre-dispensed with an Echo 550 Liquid handler (Labcyte) in black, clear bottom, TC-treated and sterile 384-well plates (3764, Corning). Growth medium consisted of RPMI 1640 GlutaMAX (61870, Gibco), 10% (v/v) FBS (10500, Gibco), and 1% (v/v) P/S (15070, Gibco). Induction medium consisted of RPMI 1640 GlutaMAX (61870, Gibco), 5% (v/v) FBS (10500, Gibco), and 1% (v/v) P/S (15070, Gibco). EC50 values were determined by fitting a four parameter sigmoidal curve model using XLfit (IDBS). Reported EC50 values are the mean of at least 3 independent measurements.

MTHFD2 [3] = biological target: T1, MTHFD2; test: Inhibition of MTHFD2 (NAD(P)H-Glo luminescence); type: biochemical; conditions: 3.4 nmol/L MTHFD2, 5 μmol/L folitixorin, 250 μmol/L NAD+; mean of at least 3 independent measurements
Experimental: DMSO was used as negative control. The serial dilution in DMSO, from compound DMSO stock solution, was created by dispensing from a 384-well low dead volume microplate (LP-0200, Labcyte) and a 384-well polypropylene microplate 2.0 (PP-0200, Labcyte). A total of 2.5 μL MTHFD2 was preincubated with compound or DMSO for 10 min. The enzymatic reaction was initiated by adding 2.5 μL folitixorin (F680350, Toronto Research Chemicals). For background control, 5 μL buffer was added to the well. […] The final concentrations of all reagents in a total assay volume of 5 μL per well were 50 mmol/L Tris-HCl at pH 8.0, 100 mmol/L NaCl, 5 mmol/L MgCl2, 25 mmol/L Na3PO4 at pH 8.0, 0.005% (v/v) Tween-20, and 2 mmol/L 2-mercaptoethanol. After 15 min reaction time, 5 μL NAD(P)H-Glo detection reagent (G9061 or G9062, Promega) was dispensed in all wells and the plate was incubated for 60 min. Luminescence was measured on a plate reader (Envision, PerkinElmer or Sense, Hidex). The light signal produced is proportional to the amount of NAD(P)H in the sample. IC50 values were determined by fitting a four parameter sigmoidal curve model using XLfit (IDBS). Reported IC50 values are the mean of at least 3 independent measurements.

T1 sequence (P13995 36-350): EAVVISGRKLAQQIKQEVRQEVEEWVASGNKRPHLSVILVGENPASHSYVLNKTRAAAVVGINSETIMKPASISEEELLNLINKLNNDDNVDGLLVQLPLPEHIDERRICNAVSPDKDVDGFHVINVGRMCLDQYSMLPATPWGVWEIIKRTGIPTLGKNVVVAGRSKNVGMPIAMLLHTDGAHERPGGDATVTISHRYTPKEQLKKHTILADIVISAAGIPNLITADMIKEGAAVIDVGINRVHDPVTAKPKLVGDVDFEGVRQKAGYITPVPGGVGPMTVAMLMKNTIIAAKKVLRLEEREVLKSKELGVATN

Structure (SMILES) | tumor growth [1] | tumor weight [1] | inhibitor of human MTHFD2 (MTHFD2 [2]) | EC50 (HL-60 cells) | IC50 (MTHFD2 [3])
Nc1nc2c(c(=O)[nH]1)N1C(=O)N(c3ccc(C(=O)N[C@@H](CCC(=O)O)C(=O)O)cc3)CC1CN2 (stereo partly drawn) [LY345899] | statistically significantly suppresses tumor growth | decreases tumor weight | – | – | –
CO[C@H](CC(=O)O)[C@@H](C)C(=O)[C@H](C)/C=C(\C)[C@H]1OC(=O)[C@H](O)[C@H](O)/C=C/[C@H](C)CCC[C@@H]1C [carolacton] | – | – | nanomolar inhibitor | – | –
Nc1nc(N)c(NC(=O)Nc2cnc(C(=O)N[C@@H](Cc3ccccc3)C(=O)O)c(F)c2)c(=O)[nH]1 [Example 35, (2S)-2-[(5-{[(2,4-diamino-6-oxo-1,6-dihydropyrimidin-5-yl)carbamoyl]amino}-3-fluoropyridin-2-yl)formamido]-3-phenylpropanoic acid] | – | – | – | 20 nM | 5 nM
Nc1nc(N)c(CC(=O)Nc2ccc(C(=O)N[C@@H](Cc3ccccc3)C(=O)O)nc2)c(=O)[nH]1 [Example 8, (2S)-2-({5-[2-(2,4-diamino-6-oxo-1,6-dihydropyrimidin-5-yl)acetamido]pyridin-2-yl}formamido)-3-phenylpropanoic acid] | – | – | – | 62 nM | 312 nM
Nc1nc(N)c(NC(=O)Nc2ccc(C(=O)N[C@@H](CCCC(=O)O)C(=O)O)nc2)c(=O)[nH]1 [Example 17, (2S)-2-[(5-{[(2,4-diamino-6-oxo-1,6-dihydropyrimidin-5-yl)carbamoyl]amino}pyridin-2-yl)formamido]hexanedioic acid] | – | – | – | 200 nM | 32 nM
